Measurements as given in US20240058450A1, “BCL-XL Inhibitory Compounds Having Low Cell Permeability and Antibody Drug Conjugates Including the Same” (AbbVie Inc., priority 2014, published 2024).
Like-named read-outs stand apart in the source and are kept apart here.

Assays:
[1] = tested on: Molt-4 human acute lymphoblastic leukemia cells; test: Molt-4 cell viability assay (CellTiter-Glo, 48 hours, 10% HS); assay type: cell-based; conditions: Homo sapiens, MOLT-4, 48 h, non-permeabilized cells
Experimental: The ability of Bcl-xL inhibitors that are able to traverse cell membranes to inhibit Bcl-xL can be determined in cell-based killing assays using a variety of cell lines and mouse tumor models. For example, their activity on cell viability can be assessed on a panel of cultured tumorigenic and non-tumorigenic cell lines, as well as primary mouse or human cell populations.
In one exemplary set of conditions, Molt-4 (ATCC, Manassas, VA) human acute lymphoblastic leukemia cells were plated 12,500 cells per well in 384-well tissue culture plates (Corning, Corning, NY) in a total volume of 25 μL tissue culture medium supplemented with 10% human serum (Sigma-Aldrich, St. Louis, MO) and treated with a 3-fold serial dilution of the compounds of interest from 10 μM to 0.0005 μM. Each concentration was tested in duplicate at least 3 separate times. The number of viable cells following 48 hours of compound treatment was determined using the CellTiter-Glo®, Luminescent Cell Viability Assay according to the manufacturer's recommendations (Promega Corp., Madison, WI). Compounds were tested in the presence of 10% HS.

[2] = molecular target: Bcl-xL (Homo sapiens, UniProt Q07817); test: Time Resolved-Fluorescence Resonance Energy Transfer (TR-FRET) binding assay, competition with probe F-Bak
Experimental: Tb-anti-GST antibody was purchased from Invitrogen (Catalog No. PV4216).
For the assay, test compounds were serially diluted in DMSO starting at 50 μM (2× starting concentration; 10% DMSO) and 10 μL transferred into a 384-well plate. 10 μL of a protein/probe/antibody mix was then added to each well at final concentrations listed below:
The samples were then mixed on a shaker for 1 minute and incubated for an additional 2 hours at room temperature. For each assay plate, a probe/antibody and protein/antibody/probe mixture were included as a negative and a positive control, respectively. Fluorescence was measured on the Envision (Perkin Elmer) using a 340/35 nm excitation filter and 520/525 (F-Bak) and 495/510 nm (Tb-labeled anti-his antibody) emission filters. Dissociation constants (Ki) were determined using Wang's equation (Wang, 1995, FEBS Lett. 360:111-114). The TR-FRET assay can be performed in the presence of varying concentrations of human serum (HS) or fetal bovine serum (FBS). Compounds were tested both without HS and in the presence of 1% HS.

[3] = in the presence of 1% HS, read-out: Bcl-xL Binding Ki (nM, 1% HS)
[4] = without HS, read-out: Bcl-xL Binding Ki

Chain of Bcl-xL (Q07817 whole entry): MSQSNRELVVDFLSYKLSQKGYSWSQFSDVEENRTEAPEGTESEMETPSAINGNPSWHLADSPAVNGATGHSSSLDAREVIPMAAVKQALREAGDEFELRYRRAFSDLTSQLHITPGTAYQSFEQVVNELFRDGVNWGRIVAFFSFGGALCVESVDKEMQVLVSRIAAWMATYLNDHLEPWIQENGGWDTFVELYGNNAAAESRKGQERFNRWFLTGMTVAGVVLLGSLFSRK

Compound	EC50 [1] [nM]	Ki [2, 3] [nM]	Ki [2, 4] [nM]
Cc1c(-c2ccc(N3CCc4cccc(C(=O)Nc5nc6ccccc6s5)c4C3)nc2C(=O)O)cnn1CC12CC3(C)CC(C)(C1)CC(OCCN(CCS(=O)(=O)O)C1CCNCC1)(C3)C2 [Example 1.30, 6-[8-(1,3-benzothiazol-2-ylcarbamoyl)-3,4-dihydroisoquinolin-2 (1H)-yl]-3-{1-[(3,5-dimethyl-7-{2-[piperidin-4-yl(2-sulfoethyl)amino]ethoxy}tricyclo[3.3.1.1^3,7]dec-1-yl)methyl]-5-methyl-1H-pyrazol-4-yl}pyridine-2-carboxylic acid]	184	0.12	< 0.001
CNCCOC12CC3(C)CC(C)(CC(Cn4ncc(-c5ccc(N6CCc7c(OCCCP(=O)(O)O)ccc(C(=O)Nc8nc9ccccc9s8)c7C6)nc5C(=O)O)c4C)(C3)C1)C2 [Example 1.31, 6-[8-(1,3-benzothiazol-2-ylcarbamoyl)-5-(3-phosphonopropoxy)-3,4-dihydroisoquinolin-2 (1H)-yl]-3-[1-({3,5-dimethyl-7-[2-(methylamino)ethoxy]tricyclo[3.3.1.1^3,7]dec-1-yl}methyl)-5-methyl-1H-pyrazol-4-yl]pyridine-2-carboxylic acid]	446	0.055	< 0.001
CNCCOC12CC3(C)CC(C)(CC(Cn4ncc(-c5ccc(N6CCc7c(OCCN)ccc(C(=O)Nc8nc9ccccc9s8)c7C6)nc5C(=O)O)c4C)(C3)C1)C2 [Example 1.34, 6-[5-(2-aminoethoxy)-8-(1,3-benzothiazol-2-ylcarbamoyl)-3,4-dihydroisoquinolin-2 (1H)-yl]-3-[1-({3,5-dimethyl-7-[2-(methylamino)ethoxy]tricyclo[3.3.1.1^3,7]dec-1-yl}methyl)-5-methyl-1H-pyrazol-4-yl]pyridine-2-carboxylic acid]	87.7	0.031	

Other lines, results leading:

EC50 [1] [nM]	Ki [2, 3] [nM]	Ki [2, 4] [nM]	Compound
568	0.046	< 0.001	Cc1c(-c2ccc(N3CCc4cccc(C(=O)Nc5nc6ccccc6s5)c4C3)nc2C(=O)O)cnn1CC12CC3(C)CC(C)(C1)CC(OCCNC1CCN(CC(=O)O)CC1)(C3)C2 [Example 1.28, 6-[8-(1,3-benzothiazol-2-ylcarbamoyl)-3,4-dihydroisoquinolin-2 (1H)-yl]-3-(1-{[3-(2-{[1-(carboxymethyl)piperidin-4-yl]amino}ethoxy)-5,7-dimethyltricyclo[3.3.1.1^3,7]dec-1-yl]methyl}-5-methyl-1H-pyrazol-4-yl}pyridine-2-carboxylic acid]
319	0.12	< 0.001	Cc1c(-c2ccc(N3CCc4cccc(C(=O)Nc5nc6ccccc6s5)c4C3)nc2C(=O)O)cnn1CC12CC3(C)CC(C)(C1)CC(OCCN(CCN)CCS(=O)(=O)O)(C3)C2 [Example 1.33, 3-{1-[(3-{2-[(2-aminoethyl)(2-sulfoethyl)amino]ethoxy}-5,7-dimethyltricyclo[3.3.1.1^3,7]dec-1-yl)methyl]-5-methyl-1H-pyrazol-4-yl}-6-[8-(1,3-benzothiazol-2-ylcarbamoyl)-3,4-dihydroisoquinolin-2 (1H)-yl]pyridine-2-carboxylic acid]
238	0.439	< 0.001	Cc1c(-c2ccc(-c3ccc4cccc(C(=O)Nc5nc6ccccc6s5)c4c3)nc2C(=O)O)cnn1CC12CC3(C)CC(C)(C1)CC(OCCNCCCS(=O)(=O)O)(C3)C2 [Example 1.35, 6-[8-(1,3-benzothiazol-2-ylcarbamoyl)naphthalen-2-yl]-3-{1-[(3,5-dimethyl-7-{2-[(3-sulfopropyl)amino]ethoxy}tricyclo[3.3.1.1^3,7]dec-1-yl)methyl]-5-methyl-1H-pyrazol-4-yl}pyridine-2-carboxylic acid]
